Drawing on PMC11940343, “In Vitro and In Vivo Evaluation of the De Novo Designed Antimicrobial Peptide P6.2 Against a KPC-Producing P. aeruginosa Clinical Isolate” (Biomolecules, 2025), this text covers MIC and interaction with meropenem for five molecules.

≈ marks a conversion by molar mass, not a printed value. Read-outs that look alike come from different tables or passages of the source.

The test system of experiment [1] is Pseudomonas aeruginosa M13513. Kind of experiment: MIC by broth microdilution (CLSI). The format is cell-based. The settings on record: two consecutive values shown where replicates varied by one dilution. The text has this: Pseudomonas aeruginosa M13513 is a clinical isolate carrying the carbapenemase KPC-2 (blaKPC-2 gene). This strain was generously supplied by the Servicio Antimicrobianos, Instituto Nacional de Enfermedades Infecciosas (INEI)-ANLIS “Dr. Carlos G. Malbrán” in Buenos Aires, Argentina.
For antimicrobial testing, bacterial cultures were maintained in Cation-Adjusted Mueller–Hinton Broth (CAMHB), following Clinical and Laboratory Standards Institute (CLSI) guidelines.
The minimal inhibitory concentration was assessed using a standard microdilution assay, following CLSI guidelines. Mueller–Hinton Broth (Laboratorios Britania S.A., Buenos Aires, Argentina) supplemented with Ca^2+ (20–25 mg/L) and Mg^2+ (10–12.5 mg/L) was used for the assay. The bacterial strains tested included Pseudomonas aeruginosa PAO1, Pseudomonas aeruginosa M13513, and Staphylococcus aureus ATCC® 25923.
For orientation: Broth dilution looks for growth in wells or tubes with falling amounts of substance.

A further experiment relates to Gram-negative bacteria. The settings on record: cited from earlier work. The text has this: This resistance arises from enzymatic inactivation by carbapenemases, as mentioned before, decreased cellular entry due to reduced expression of the outer membrane porins, and increased expression of efflux pumps.
Setting [2] is: Pseudomonas aeruginosa, M13513, CAMHB, read-out: MIC.

The MIC is the lowest concentration found to suppress growth.

Regarding `C[C@@H](O)[C@H]1C(=O)N2C(C(=O)O)=C(SCCN=CN)C[C@H]12` [Imipenem], the MIC in experiment [1] (CAMHB) is on record as 256/512.

`C[C@@H](O)[C@H]1C(=O)N2C(C(=O)O)=C(S[C@@H]3CN[C@H](C(=O)N(C)C)C3)[C@H](C)[C@H]12` [Meropenem, meropenem]: in experiment [1] (CAMHB), the MIC was 512/1024.

Consider polymyxin B, for which the interaction with meropenem entry in the experiment on Gram-negative bacteria was “displays synergy with meropenem”.

With `CNC(C)C1CCC(N)C(OC2C(N)CC(N)C(OC3OCC(C)(O)C(NC)C3O)C2O)O1` (centres unmarked) [Gentamicin], the MIC in experiment [1] (setting [2]) was found to be 2 µg/mL (≈ 4.19 µM).

As to `NC[C@H]1O[C@H](O[C@H]2[C@H](O)[C@@H](O[C@H]3O[C@H](CO)[C@@H](O)[C@H](N)[C@H]3O)[C@H](N)C[C@@H]2N)[C@H](N)C[C@@H]1O` [Tobramycin], the MIC in experiment [1] (setting [2]) is 1 µg/mL (≈ 2.14 µM).
